Source: patent publication US9416149B2, “Methods to modulate Rac1 import and to treat pulmonary fibrosis” (University of Iowa Research Foundation, priority 2013, dated 2016)

Tests used:
THP-1 cells = assay: Mitochondrial H2O2 generation in THP-1 cells exposed to chrysotile (pHPA assay); type: cell-based; details: FIG. 11F, DGBP 10 μM overnight, chrysotile 10 μg/cm^2 for 1 h
Experimental: (§1) THP-1, MLE-12, and HLF-1 cell lines were obtained from American Type Culture Collection (Manassas, Va.). Cells were maintained in RPMI-1640, Hites, or F-12K media supplemented with fetal bovine serum and penicillin/streptomycin. All experiments were performed with media supplemented with 0.5% serum.
(§2) Extracellular H2O2 production was determined fluorometrically, as previously described (He, C., et al., Mitochondrial Cu,Zn-Superoxide Dismutase Mediates Pulmonary Fibrosis by Augmenting H2O2 Generation. J Biol Chem, 2011. 286(17): p. 15597-607). Briefly, cells were incubated in phenol-red free Hanks' balanced salt solution supplemented with 6.5 mM glucose, 1 mM HEPES, 6 mM sodium bicarbonate, 1.6 mM pHPA, and 0.95 μg/ml HRP. Fluorescence of the pHPA-dimer was measured using a spectrofluorometer at excitation of 320 nm and emission of 400 nm. Mitochondrial H2O2 was measured by resuspending mitochondria in phenol-red free Hanks' balanced salt solution supplemented with 6.5 mM glucose, 1 mM HEPES, 6 mM sodium bicarbonate, 1.6 mM pHPA, 0.95 μg/ml HRP and 5 mM α-ketoglutarate.
(§3) Mitochondria were isolated as previously described (He, C., et al., Mitochondrial Cu,Zn-Superoxide Dismutase Mediates Pulmonary Fibrosis by Augmenting H2O2 Generation. J Biol Chem, 2011. 286(17): p. 15597-607). […]

[1] = test system: chrysotile-induced pulmonary fibrosis; assay: Chrysotile asbestos-induced pulmonary fibrosis in mice, DGBP via subcutaneous osmotic pump; type: in vivo
Experimental: To determine the biological relevance of DGBP on oxidative stress in vivo, WT mice were exposed to asbestos (100 μg i.t.). The mice were treated with vehicle or DGBP via administration utilizing a subcutaneous osmotic pump. After 21 days, the mice were euthanized, and lung oxidative stress was determined by GSH assay.
(§4) Wild-type C57Bl/6 mice were from Jackson Laboratories (Bar Habor, Me.). The University of Iowa Institutional Animal Care and Use Committee approved all protocols. After equilibration, osmotic pumps (Alzet, Cupertino, Calif.) containing either vehicle (water) or DGBP (0.2 mg/kg/day) were implanted subcutaneously, as describe previously (Erickson, J. R., et al., A dynamic pathway for calcium-independent activation of CaMKII by methionine oxidation. Cell, 2008. 133(3): p. 462-74). Bleomycin (2.0 U/kg) or chrysotile ([…]) was administered intratracheally. Mice were euthanized and fibrosis determined as previously described (Osborn-Heaford, H. L., et al., Mitochondrial Rac1 GTPase Import and Electron Transfer from Cytochrome c Are Required for Pulmonary Fibrosis. The Journal of biological chemistry, 2012. 287(5): p. 3301-12, He, C., et al., Accelerated Development of Pulmonary Fibrosis via Cu,Zn-superoxide Dismutase-induced Alternative Activation of Macrophages. J Biol Chem, 2013. 288(28): p. 20745-57).
(§5) Mitochondria were isolated as previously described (He, C., et al., Mitochondrial Cu,Zn-Superoxide Dismutase Mediates Pulmonary Fibrosis by Augmenting H2O2 Generation. J Biol Chem, 2011. 286(17): p. 15597-607).
(§6) Lung tissue was dried to stable weight and acid hydrolyzed with 6N HCl for 24 h at 120° C. Hydroxyproline concentration normalized, to dry weight of the lung, was determined as described previously (Osborn-Heaford, H. L., et al., Mitochondrial Rac1 GTPase Import and Electron Transfer from Cytochrome c Are Required for Pulmonary Fibrosis. The Journal of biological chemistry, 2012. 287(5): p. 3301-12).
(§7) Reduced and oxidized glutathione in the lung were determined as described previously (He, C., et al., Mitochondrial Cu,Zn-Superoxide Dismutase Mediates Pulmonary Fibrosis by Augmenting H2O2 Generation. J Biol Chem, 2011. 286(17): p. 15597-607).
(§8) Whole cells lysates and sub-cellular fractions were separated by SDS-PAGE and transferred to PVDF membranes. Immunoblot analyses on the membranes were performed with the designated antibodies followed by the appropriate secondary antibody cross-linked to HRP.
To determine if geranylgeranylation of Rac1 is associated with other forms of pulmonary fibrosis, the role of DGBP in modulating chrysotile-induced pulmonary fibrosis was tested. WT mice with subcutaneous osmotic pumps delivering vehicle or DGBP were exposed to chrysotile as previously described (He, C., et al., Mitochondrial Cu,Zn-Superoxide Dismutase Mediates Pulmonary Fibrosis by Augmenting H2O2 Generation. J Biol Chem, 2011. 286(17): p. 15597-607, Osborn-Heaford, H. L., et al., Mitochondrial Rac1 GTPase Import and Electron Transfer from Cytochrome c Are Required for Pulmonary Fibrosis. The Journal of biological chemistry, 2012. 287(5): p. 3301-12, Murthy, S., et al., Rac1-mediated Mitochondrial H2O2 Generation Regulates MMP-9 Gene Expression in Macrophages via Inhibition of SP-1 and AP-1. J Biol Chem, 2010. 285(32): p. 25062-73). It was first determined if DGBP altered mitochondrial Rac1 localization in BAL cells. Alveolar macrophages were obtained by BAL 21 days after chrysotile exposure. […] Lung oxidative stress was also evaluated. […]

Rac1 = assay: Mitochondrial Rac1 import, immunoblot for Flag-Rac1 in isolated mitochondria of transfected macrophages; type: cell-based; details: for localization of Rac1 to the mitochondria: Example 2, FIG. 8D
Experimental: as §5, §8
(§9) To determine if DGBP inhibits Rac1 import into mitochondria, we exposed macrophages to vehicle (water) or DGBP in cells transfected with an empty control or a wild-type Rac1 expression vector (pRK-Flag-Rac1). […] To confirm that DGBP reduced Rac1 import secondary to inhibiting geranylgeranylation, an immunoblot analysis for Rap 1A, which only recognizes non-geranylgeranylated proteins and is indicative of reduced GGPP levels was performed (Weivoda, M. M. and R. J. Hohl, The effects of direct inhibition of geranylgeranyl pyrophosphate synthase on osteoblast differentiation. J Cell Biochem, 2011. 112(6): p. 1506-13, Wasko, B. M., A. Dudakovic, and R. J. Hohl, Bisphosphonates induce autophagy by depleting geranylgeranyl diphosphate. J Pharmacol Exp Ther, 2011. 337(2): p. 540-6). […] To examine whether DGBP altered H2O2 levels, cells were treated similarly as above described with DGBP (10 mM).

Macrophages [2] = assay: Mitochondrial H2O2 generation in macrophages exposed to chrysotile asbestos (pHPA assay); type: cell-based; details: Example 1, FIG. 2; DGBP 10 mM; chrysotile asbestos 10 μg/cm^2; isolated mitochondria
Experimental: as §2, §5

[3] = Apparent toxicity at the concentrations and doses used in the studies; details: in vitro or in vivo
[4] = test system: bleomycin-induced pulmonary fibrosis; assay: Progression of bleomycin-induced pulmonary fibrosis in mice, osmotic pumps installed seven days after bleomycin; type: in vivo
Experimental: as §4
Lung tissue was dried to stable weight and acid hydrolyzed with 6N HCl for 24 h at 120° C. […]

MLE-12 cells = assay: Mitochondrial H2O2 generation in MLE-12 cells exposed to chrysotile (pHPA assay); type: cell-based; details: FIG. 11G, DGBP 10 μM overnight, chrysotile 10 μg/cm^2 for 1 h
Experimental: as §1, §2, §3

[5] = test system: bleomycin-induced pulmonary fibrosis; assay: Bleomycin-induced pulmonary fibrosis in mice, DGBP via subcutaneous osmotic pump; type: in vivo
Experimental: as §4, §5, §6, §7, §8
Active TGF-β in BAL fluid was measured by ELISA (R&D, Minneapolis, Minn.), according to manufacturer's instructions.
Because bleomycin increased mitochondrial oxidative stress in alveolar macrophages in vivo, it was next evaluated if bleomycin modulates Rac1 mitochondrial import. Osmotic pumps containing either vehicle (water) or DGBP were implanted subcutaneously in WT mice. DGBP was delivered at a dose of 0.2 mg/kg/day. Mice were exposed to saline or bleomycin the following day, and BAL was performed 21 days later to obtain alveolar macrophages. Mitochondria were isolated to investigate Rac1 localization.

Macrophages [6] = assay: H2O2 generation in macrophages exposed to chrysotile asbestos (pHPA assay); type: cell-based
Experimental: as §2

HLF-1 cells = assay: Mitochondrial H2O2 generation in HLF-1 cells exposed to chrysotile (pHPA assay); type: cell-based; details: FIG. 11H, DGBP 10 μM overnight, presence or absence of chrysotile
Experimental: as §1, §2, §3

Rap1A = assay: Geranylgeranylation, immunoblot for non-geranylgeranylated Rap1A in macrophages; type: cell-based
Experimental: as §8, §9

digeranyl bisphosphonate [DGBP]
mitochondrial H2O2 generation (THP-1 cells): reduced chrysotile-induced H2O2 significantly at all time points
lung oxidative stress (GSH assay) ([1]; Example 1, FIG. 4, asbestos 100 μg i.t., after 21 days, vs vehicle): significant reduction in lung oxidative stress
pulmonary fibrosis (hydroxyproline assay) ([1]; Example 1, FIG. 5, chrysotile asbestos 100 μg i.t., 21 days, vs vehicle): significantly less pulmonary fibrosis
oxidized GSH (% GSSG) in the lung, vehicle relative to DGBP ([1]; FIG. 11B, chrysotile, 21 days): 2.5 fold
lung histology (Masson's trichrome) ([1]; FIG. 11D, chrysotile, after 21 days): essentially normal
lung hydroxyproline ([1]; FIG. 11E, chrysotile, after 21 days, water vs DGBP): confirmed by hydroxyproline assay
mitochondrial Rac1 import (Rac1; Example 1, FIG. 3A, chrysotile asbestos 10 μg/cm^2 for 1 h): inhibited mitochondrial Rac1 import in a dose-dependent manner
localization of Rac1 to the mitochondria (Rac1; 1 mM DGBP overnight, chrysotile 10 μg/cm^2 for 90 min): Chrysotile induced localization of Rac1 to the mitochondria
localization of Rac1 to the mitochondria (Rac1; 10 mM DGBP overnight, presence or absence of chrysotile): Rac1 was absent from the mitochondria
mitochondrial H2O2 generation (Macrophages [2]): abrogated asbestos-induced mitochondrial H2O2 generation below control levels
apparent toxicity [3]: not associated with apparent toxicity in vitro or in vivo
lung collagen deposition (Masson's trichrome) ([4]; FIG. 10C, DGBP 0.2 mg/kg/day from seven days after bleomycin, 21 days after bleomycin): small patches of collagen deposition, but there was significantly less collagen compared to mice that received vehicle
lung hydroxyproline content ([4]; FIG. 10D, DGBP from seven days after bleomycin, vs vehicle): significantly less hydroxyproline
mitochondrial H2O2 generation (MLE-12 cells): increased H2O2 generation in cells exposed to chrysotile
pulmonary fibrosis (hydroxyproline assay) ([5]; Example 1, FIG. 6, bleomycin 2.0 U/kg i.t., 21 days, vs vehicle): significantly less pulmonary fibrosis
immunoreactive Rac1 in alveolar macrophage mitochondria ([5]; FIG. 9B, DGBP 0.2 mg/kg/day, bleomycin 2.0 U/kg, BAL 21 days later): significant reduction in immunoreactive Rac1 in mitochondria
non-geranylgeranylated Rap1A in BAL cells ([5]; FIG. 9B, DGBP 0.2 mg/kg/day, immunoblot): non-geranylgeranylated Rap 1A was increased
oxidized GSH (% GSSG) in lung, vehicle vs DGBP ([5]; FIG. 9C, bleomycin, after 21 days): significantly higher oxidized GSH (% GSSG) than the lungs of mice that received DGBP
active TGF-β in BAL fluid, vehicle relative to DGBP ([5]; FIG. 9D, bleomycin, DGBP 0.2 mg/kg/day, ELISA): greater than 5 fold
lung histology (Masson's trichrome) ([5]; FIG. 9F, bleomycin): normal lung architecture
lung hydroxyproline ([5]; FIG. 9G, following bleomycin exposure, vs vehicle): significantly less hydroxyproline
H2O2 generation (Macrophages [6]; Example 1, FIG. 1, DGBP 10 mM, chrysotile asbestos 10 μg/cm^2): significant reduction in H2O2 to control levels
H2O2 levels (Macrophages [6]; Example 2, FIG. 8F, DGBP 10 mM overnight, presence and absence of chrysotile 10 μg/cm^2, 90 min): decreased H2O2 to control levels
mitochondrial H2O2 generation (HLF-1 cells): increased H2O2 in the presence or absence of chrysotile
geranylgeranylation (Rap1A immunoblot) (Rap1A; Example 1, FIG. 3B, whole cell lysates): inhibition of geranylgeranylation
Rap1A geranylgeranylation (Rap1A; Example 2, FIG. 8E, 10 mM DGBP, isolated cytoplasm): impaired Rap1A geranylgeranylation
